Reference: PubChem BioAssay (NCI)
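A five-concentration, 48-hour dose response in 96-well plates underlies each endpoint, interpolated linearly between surrounding concentrations. TGI: total growth inhibition.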

Columns and labels:
Assay in all cases: growth of human tumour cells (NCI), 48 h
SF-539 CNS = tested on: SF-539 CNS
HCC-2998 colon = tested on: HCC-2998 colon
OVCAR-3 ovarian = tested on: OVCAR-3 ovarian
NCI-H226 lung = tested on: NCI-H226 lung
NCI-H522 lung = tested on: NCI-H522 lung
TK-10 renal = tested on: TK-10 renal
SN12C renal = tested on: SN12C renal
MDA-MB-231 breast = tested on: MDA-MB-231 breast
SR leukemia = tested on: SR leukemia
CAKI-1 renal = tested on: CAKI-1 renal
786-0 renal = tested on: 786-0 renal
OVCAR-5 ovarian = tested on: OVCAR-5 ovarian
LOX IMVI melanoma = tested on: LOX IMVI melanoma
RPMI-8226 leukemia = tested on: RPMI-8226 leukemia
MCF7 breast = tested on: MCF7 breast
U251 CNS = tested on: U251 CNS
UO-31 renal = tested on: UO-31 renal
MDA-N = tested on: MDA-N
NCI-H23 lung = tested on: NCI-H23 lung
DU-145 prostate = tested on: DU-145 prostate
A498 renal = tested on: A498 renal
SK-MEL-2 melanoma = tested on: SK-MEL-2 melanoma
ACHN renal = tested on: ACHN renal
HT29 colon = tested on: HT29 colon
CCRF-CEM leukemia = tested on: CCRF-CEM leukemia
UACC-62 melanoma = tested on: UACC-62 melanoma
IGROV1 ovarian = tested on: IGROV1 ovarian
OVCAR-4 ovarian = tested on: OVCAR-4 ovarian
SF-295 CNS = tested on: SF-295 CNS
MALME-3M melanoma = tested on: MALME-3M melanoma
M14 melanoma = tested on: M14 melanoma
HS 578T breast = tested on: HS 578T breast
K-562 leukemia = tested on: K-562 leukemia
SK-OV-3 ovarian = tested on: SK-OV-3 ovarian
A549 NSCLC = tested on: A549 NSCLC
SNB-75 CNS = tested on: SNB-75 CNS
KM12 colon = tested on: KM12 colon
SW-620 colon = tested on: SW-620 colon
PC-3 prostate = tested on: PC-3 prostate
RXF 393 renal = tested on: RXF 393 renal
T-47D breast = tested on: T-47D breast
MOLT-4 leukemia = tested on: MOLT-4 leukemia
OVCAR-8 ovarian = tested on: OVCAR-8 ovarian
MDA-MB-435 = tested on: MDA-MB-435
SK-MEL-5 melanoma = tested on: SK-MEL-5 melanoma
SF-268 CNS = tested on: SF-268 CNS
SK-MEL-28 melanoma = tested on: SK-MEL-28 melanoma
EKVX NSCLC = tested on: EKVX NSCLC
NCI-H460 lung = tested on: NCI-H460 lung
SNB-19 CNS = tested on: SNB-19 CNS
UACC-257 melanoma = tested on: UACC-257 melanoma
NCI/ADR-RES ovarian = tested on: NCI/ADR-RES ovarian
BT-549 breast = tested on: BT-549 breast
COLO 205 colon = tested on: COLO 205 colon
HCT-116 colon = tested on: HCT-116 colon
HL-60(TB) leukemia = tested on: HL-60(TB) leukemia
HOP-92 NSCLC = tested on: HOP-92 NSCLC
HOP-62 NSCLC = tested on: HOP-62 NSCLC
HCT-15 colon = tested on: HCT-15 colon

Measured: TGI

Cc1ccc(NC(=O)CC(=O)N2N=C(N(C)c3ccccc3)CC2c2ccccc2)cc1 (stereo not drawn)
77.9 µM: SNB-75 CNS
> 100 µM: SF-539 CNS | HCC-2998 colon | OVCAR-3 ovarian | NCI-H226 lung | NCI-H522 lung | TK-10 renal | SN12C renal | MDA-MB-231 breast | SR leukemia | CAKI-1 renal | 786-0 renal | OVCAR-5 ovarian | LOX IMVI melanoma | RPMI-8226 leukemia | MCF7 breast | U251 CNS | UO-31 renal | MDA-N | NCI-H23 lung | DU-145 prostate | A498 renal | SK-MEL-2 melanoma | ACHN renal | HT29 colon | CCRF-CEM leukemia | UACC-62 melanoma | IGROV1 ovarian | OVCAR-4 ovarian | SF-295 CNS | MALME-3M melanoma | M14 melanoma | HS 578T breast | K-562 leukemia | SK-OV-3 ovarian | A549 NSCLC | KM12 colon | SW-620 colon | PC-3 prostate | RXF 393 renal | T-47D breast | MOLT-4 leukemia | OVCAR-8 ovarian | MDA-MB-435 | SK-MEL-5 melanoma | SF-268 CNS | SK-MEL-28 melanoma | EKVX NSCLC | NCI-H460 lung | SNB-19 CNS | UACC-257 melanoma | NCI/ADR-RES ovarian | BT-549 breast | COLO 205 colon | HCT-116 colon | HL-60(TB) leukemia | HOP-92 NSCLC | HOP-62 NSCLC | HCT-15 colon

Cc1cc(N(CCC#N)CCC#N)ccc1/C=N/NC(=O)c1ccccc1
> 56.5 µM: HS 578T breast
84.1 µM: NCI-H226 lung
> 92.6 µM: HCT-116 colon
> 86.2 µM: DU-145 prostate
10.6 µM: MDA-N
36.1 µM: NCI/ADR-RES ovarian
47.5 µM: SF-539 CNS
55.1 µM: HCC-2998 colon
14.2 µM: HT29 colon
65.4 µM: A498 renal
> 100 µM: TK-10 renal | SN12C renal | CAKI-1 renal | 786-0 renal | OVCAR-5 ovarian | LOX IMVI melanoma | RPMI-8226 leukemia | MCF7 breast | U251 CNS | UO-31 renal | NCI-H23 lung | SK-MEL-2 melanoma | ACHN renal | UACC-62 melanoma | IGROV1 ovarian | OVCAR-4 ovarian | SF-295 CNS | MALME-3M melanoma | M14 melanoma | K-562 leukemia | SK-OV-3 ovarian | A549 NSCLC | SNB-75 CNS | KM12 colon | SW-620 colon | PC-3 prostate | RXF 393 renal | T-47D breast | MOLT-4 leukemia | SK-MEL-5 melanoma | SF-268 CNS | SK-MEL-28 melanoma | EKVX NSCLC | NCI-H460 lung | SNB-19 CNS | UACC-257 melanoma | BT-549 breast | COLO 205 colon | HOP-92 NSCLC | HOP-62 NSCLC | HCT-15 colon
> 43.2 µM: SR leukemia
> 84 µM: OVCAR-3 ovarian
> 81.3 µM: MDA-MB-231 breast
> 27.2 µM: HL-60(TB) leukemia
> 82.8 µM: OVCAR-8 ovarian
> 38.9 µM: MDA-MB-435
98.1 µM: CCRF-CEM leukemia
39.3 µM: NCI-H522 lung
